The text below walks through data of US10676754B2, “Compositions and methods for producing plants resistant to glyphosate herbicide” (E I DU PONT DE NEMOURS AND COMPANY, priority 2014, dated 2020).

In assay [1] the test system is maize plants. As to the kind of experiment: Glyphosate spray test on maize plants at V3 growth stage. Format: in vivo. How it is done: TO plants grew well in the greenhouse and were fertile. A sample of TO plants was sprayed with a 1× dose of glyphosate at V3 growth stage using the spray booth setting of 20 gallons per acre. The 1× dose of glyphosate was prepared as follow: 2.55 ml Powermax in 300 ml water (active ingredient: glyphosate, N-(phosphonomethyl) glycine, in the form of its potassium salt at 48.7%). […] This TO plant was designated as hemizygous at the epsps locus.
A random sample of the F1 plants progeny of the E1 and E2 parental plants) was sprayed with 2.55 ml Powermax (glyphosate solution) in 300 ml water at the setting of 20 gallons per acre at the V3 stage of growth.

The test system of assay [2] is F2 maize embryos. As to the kind of experiment: Embryo rescue: germination of F2 embryos on rooting media containing glyphosate. Format: in vivo. How it is done: For embryo rescue of the F2 progeny seedlings from selfed F1 plants, ears were harvested 18 days after pollination and sterilized in 20:80 bleach/water mix. Embryos were excised and placed on rooting media (272V—4.3 g/L Murashige and Skoog basal salt mixture, 5.0 ml/L MS vitamins stock solution, 100 mg/L mio-inositol, 40 g/L sucrose, 6 g/L Bacto Agar) with or without glyphosate at 0.1 mM, 0.5 mM, 1 mM, 3 mM concentration. They were transferred to a light room at 26° C. and allowed to germinate for 7 days. Embryos containing the wild-type EPSPS alleles, hemizygous and homozygous for the epsps-TIPS allele germinated on media without glyphosate. […] The presence of the epsps-TIPS allele in the analyzed seedlings is indicated as “positive” or “negative”, while the wild-type EPSPS allele copy number is indicated in the columns to the right (Table 14)

Assay [3] relates to artificial I-SceI recognition site in maize genome. The following applies: analyzed F1 plants, transgenic nuclease introduced by crossing and activated by gene excision; cited from earlier work.
The mark [4] stands for this setting: epsps-TIPS-containing F1 plants after spray.

On to `O=C(O)CNCP(=O)(O)O` [glyphosate, N-phosphonomethylglycine], for which the survival of plants result in assay [1] (F1 plants containing the epsps-TIPS edited allele, 2.55 ml Powermax in 300 ml water, 20 gallons per acre, V3) is given as “survived”. Besides, the leaf tissue damage result in assay [1] (F1 plants without the epsps-TIPS allele, 2.55 ml Powermax in 300 ml water, 20 gallons per acre, V3) was “severe leaf tissue damage”; in assay [1] (T0 plants hemizygous for epsps-TIPS alleles, 1× dose, V3, 20 gallons per acre, seven days after application), “no leaf tissue damage”; in assay [1] (one T0 plant hemizygous at the epsps locus, 1× dose, 14 days after application) it was “no damage to the leaf tissue”; in assay [1] (other T0 plantlets, 1× dose, V3, 20 gallons per acre, seven days after application), “severely damaged”. Also, in assay [1] (setting [4]), the growth of plants result is listed as “slowed down”. In addition, in assay [1] (setting [4]), the “leaf symptoms over time” value is given as “bleached sectors of the leaf tissue on newly emerging leaves”. In addition, the tolerance of plants result in assay [1] (some epsps-TIPS edited maize T0 plants, 1× dose) is on record as “some level of tolerance”. Also, the green seedling production entry in assay [2] (0.1 mM in rooting media, 7 days, 26° C., F2 embryos) is on record as “only embryos containing the epsps-TIPS alleles produced green seedlings”; in assay [2] (embryos homozygous for the epsps-TIPS allele, 1.0 mM), “produced green seedlings”; in assay [2] (hemizygous embryos, 1.0 mM), “did not”. The “wild-type seedlings among germinating embryos” value in assay [2] (0.1 mM or any other concentration up to 3 mM in media) is listed as “No wild-type seedlings were detected”.

B1: I-SceI: wild type yeast I-SceI homing nuclease (protein, UniProt P03882 1-235, looked up)
Intron-encoded endonuclease …: MKNIKKNQVMNLGPNSKLLKEYKSQLIELNIEQFEAGIGLILGDAYIRSRDEGKTYCMQFEWKNKAYMDHVCLLYDQWVLSPPHKKERVNHLGNLVITWGAQTFKHQAFNKLANLFIVNNKKTIPNNLVENYLTPMSLAYWFMDDGGKWDYNKNSTNKSIVLNTQSFTFEEVEYLVKGLRNKFQLNCYVKINKNKPIIYIDSMSYLIFYNLIKPYLIPQMMYKLPNTISSETFLK
B1: the “plants with mutations of the recognition sequence” value in assay [3] is recorded as 1%.
